Measurements from patent US6660910B1, “Selection marker” (Syngenta Mogen B.V., priority 1997, dated 2003).

Experiments:
[1] = test system: cotyledons of Lycopersicon esculentum cv. Money Maker; experiment: Transformation of tomato cotyledon explants with selection on cyanamide or kanamycin; assay type: cell-based; details: for No. of rooting shoots: rooting medium 50 mg/l cyanamide
Protocol: Described below is the method used for transformation of cotyledons of Lycopersicon esculentum cv. Money Maker using Agrobacterium tumefaciens. The binary vectors and Agrobacteria strains for this transformation method are identical to those described above. Tomato seedlings were germinated on Germination Medium (GEM) under a 16 h light period (1700 lux) at 24° C. and a 8 h dark period at 21° C. (The contents of the various media can be found in Table 4). Cotyledon explants of 5 to 7 day old seedlings were cut on sterile filter paper soaked with Washing Medium (WAM) and placed on plates containing Cocultivation Medium (COM). The plates, each containing approximately 50 explants, were incubated overnight under the same conditions as described above.
The pre incubated explants were carefully submerged in the Agrobacterium inoculum for 20 minutes.
The explants were then blotted dry on sterile filter paper and incubated for 48 h on the second set of Cocultivation plates. In procession the explants were incubated for 72 h on plates containing Postcultivation Medium (POM) after which the explants were transferred to Shoot inducing Medium (SIM) containing several concentrations of cyanamide or kanamycin. Every three weeks the explants were subcultured on the same medium. After approximately 8-12 weeks shoots were excised and placed on Root inducing Medium (RIM). Shoots that were able to root were then transferred to Root inducing Medium containing 50 mg/l cyanamide or 30 mg/l kanamycin. Simultaneously leaflets of the rooted shoots were tested for expression of the gus gene in a histochemical GUS assay.

[2] = test system: root segments of Arabidopsis thaliana cv. C24; experiment: Arabidopsis root transformation with selection on cyanamide or kanamycin; assay type: cell-based; details: for % Shoots rooting / Nr. of plants (shoots developed into plants and able to root) / Percentage of GUS expressing plants (% of plants staining blue): pMOG 1156
Protocol: Described below is the method used for transformation of root segments of Arabidopsis thaliana cv. C24 using Agrobacterium tumefaciens. The binary vectors for this transformation method are identical to those described above.
Six mg of Arabidopsis seeds were germinated in a flask containing liquid Germination Medium (GM) under 16 h light period (1700 lux) at 24° C. and a 8 h dark period at 21° C. at 80 rpm. (The contents of various media can be found in Table 4). Roots of 9 days old seedlings were isolated in a sterile petridish and collected in a drop of Germination Medium (GM). Roots were cut in segments of approximately 3-5 mm and approximately 100 explants were spread evenly on a nylon membrane (O 8 cm) which was placed on plates containing Callus Inducing Medium (CIM). The plates were incubated 3 days under the same conditions as described above.
The Agrobacterium strain used in this study harbored a rifampicin selection marker in a C 58 chromosomal background. The construction of the helper strain MOG101 is described by Hood et al. (1993).
Agrobacteria were grown overnight in LB medium with antibiotics (rifampicin 20 mg/l, kanamycin 100 mg/l). The overnight culture was diluted 1:10 in LB without antibiotics and grown for approximately 3 hours. Bacterial suspensions were centrifuged at 1600×g for 15 minutes at room temperature. Bacteria were resuspended in GM and adjusted to OD600=0.1 and used for cocultivation.
The membrane containing approximately 100 explants was incubated for 2 minutes with the Agrobacterium suspension and dried on sterile filter paper to remove excess of bacteria. The membrane with explants are cultured for 48 h on CIM plates. After rinsing the membrane and explants with liquid GM these were incubated on Shoot Induction Medium (SIM) plates containing several concentrations of cyanamide or kanamycin. After 5 days the membrane with the explants was transferred to the same medium (SIM) for subculture. The second subculture was after 2 weeks. Approximately four weeks after cocultivation 60 shoots per cyanamide concentration were excised and placed on plates with Shoot Elongation Medium (SEM) containing 30 mg/l cyanamide. Shoots which were able to root are tested on their transgenic character by testing leaflets and flowers for expression of the gus gene using a histochemical GUS assay.
Three experiments were performed. Shoots obtained from Exp. 98-8 and 98-11 were transferred to rooting medium (SEM) containing 30 mg/litre cyanamide. Shoots obtained from Exp. 98-13 were transferred to rooting medium containing the same concentration as the selection medium (SIM), for results see Table 4a. The shoots obtained from the kanamycin selection (50 mg/litre) were transferred to rooting medium containing 25 mg/litre Kanamycin.

[3] = pMOG410 (gus-nptII), Cyanamide 20 mg/l during regeneration, 30 inoculated explants
[4] = pMOG410 (gus-nptII), Cyanamide 30 mg/l during regeneration, 30 inoculated explants
[5] = pMOG410 (gus-nptII), Cyanamide 40 mg/l during regeneration, 30 inoculated explants
[6] = pMOG874 (cah-nptII), Cyanamide 20 mg/l during regeneration, 35 inoculated explants
[7] = pMOG874 (cah-nptII), Cyanamide 30 mg/l during regeneration, 35 inoculated explants
[8] = pMOG874 (cah-nptII), Cyanamide 40 mg/l during regeneration, 35 inoculated explants
[9] = pMOG1156 (gus-nptII-cah), Cyanamide 20 mg/l during regeneration, 30 inoculated explants
[10] = pMOG1156 (gus-nptII-cah), Cyanamide 30 mg/l during regeneration, 30 inoculated explants
[11] = pMOG1156 (gus-nptII-cah), Cyanamide 40 mg/l during regeneration, 30 inoculated explants
[12] = Experiment 98-8, selection cyanamide 20 mg/litre, rooting medium 30 mg/litre cyanamide
[13] = Experiment 98-8, selection cyanamide 30 mg/litre, rooting medium 30 mg/litre cyanamide
[14] = Experiment 98-8, selection cyanamide 40 mg/litre, rooting medium 30 mg/litre cyanamide
[15] = Experiment 98-8, selection cyanamide 60 mg/litre, rooting medium 30 mg/litre cyanamide
[16] = Experiment 98-8, selection cyanamide 80 mg/litre, rooting medium 30 mg/litre cyanamide
[17] = Experiment 98-11, selection cyanamide 20 mg/litre, rooting medium 30 mg/litre cyanamide
[18] = Experiment 98-11, selection cyanamide 30 mg/litre, rooting medium 30 mg/litre cyanamide
[19] = Experiment 98-11, selection cyanamide 40 mg/litre, rooting medium 30 mg/litre cyanamide
[20] = Experiment 98-11, selection cyanamide 50 mg/litre, rooting medium 30 mg/litre cyanamide
[21] = Experiment 98-11, selection cyanamide 80 mg/litre, rooting medium 30 mg/litre cyanamide
[22] = Experiment 98-13, selection cyanamide 20 mg/litre, rooting medium same concentration as selection medium
[23] = Experiment 98-13, selection cyanamide 30 mg/litre, rooting medium same concentration as selection medium
[24] = Experiment 98-13, selection cyanamide 50 mg/litre, rooting medium same concentration as selection medium
[25] = Experiment 98-13, selection cyanamide 60 mg/litre, rooting medium same concentration as selection medium
[26] = Experiment 98-13, selection cyanamide 80 mg/litre, rooting medium same concentration as selection medium

**Q.** Which “No. of excised shoots” value [1, 3] does the source give for `N#CN` [Cyanamide] here?
**A.** 0

**Q.** What about the “No. of gus + shoots” value [1, 3] of the same molecule?
**A.** 0

**Q.** What about the “No. of rooting shoots” value [1, 3] of the same molecule?
**A.** 0

**Q.** And the “No. of excised shoots” value [1, 4]?
**A.** 3

**Q.** And the “No. of gus + shoots” value [1, 4]?
**A.** 0

**Q.** And the “No. of rooting shoots” value [1, 4]?
**A.** 0

**Q.** What about the “No. of excised shoots” value [1, 5] of the same molecule?
**A.** 0

**Q.** And the “No. of gus + shoots” value [1, 5]?
**A.** 0

**Q.** And the “No. of rooting shoots” value [1, 5]?
**A.** 0

**Q.** What about the “No. of excised shoots” value [1, 6] of the same molecule?
**A.** 2

**Q.** What about the “No. of rooting shoots” value [1, 6] of the same molecule?
**A.** 0

**Q.** What about the “No. of excised shoots” value [1, 7] of the same molecule?
**A.** 0

**Q.** What about the “No. of rooting shoots” value [1, 7] of the same molecule?
**A.** 0

**Q.** And the “No. of excised shoots” value [1, 8]?
**A.** 1

**Q.** What about the “No. of rooting shoots” value [1, 8] of the same molecule?
**A.** 1

**Q.** What about the “No. of excised shoots” value [1, 9] of the same molecule?
**A.** 0

**Q.** What about the “No. of gus + shoots” value [1, 9] of the same molecule?
**A.** 0

**Q.** What about the “No. of rooting shoots” value [1, 9] of the same molecule?
**A.** 0

**Q.** What about the “No. of excised shoots” value [1, 10] of the same molecule?
**A.** 5

**Q.** What about the “No. of gus + shoots” value [1, 10] of the same molecule?
**A.** 0

**Q.** What about the “No. of rooting shoots” value [1, 10] of the same molecule?
**A.** 0

**Q.** What about the “No. of excised shoots” value [1, 11] of the same molecule?
**A.** 5

**Q.** And the “No. of gus + shoots” value [1, 11]?
**A.** 3

**Q.** What about the “No. of rooting shoots” value [1, 11] of the same molecule?
**A.** 3

**Q.** What about the “Speed of shoot regeneration compared with kanamycin” value ([2]; PMOG 1156, lower cyanamide concentrations) of the same molecule?
**A.** regeneration of shoots was faster than with kanamycin

**Q.** What about the “Regeneration of root explants” value ([2]; explants transformed with pMOG 410 (without the cah gene), 20 mg/litre cyanamide) of the same molecule?
**A.** already enough to prevent regeneration

**Q.** And the “Viability of root explants” value ([2]; explants transformed with pMOG 410, 50 mg/litre cyanamide and higher)?
**A.** not viable and turned completely brown

**Q.** And the “Callus development of root explants” value ([2]; explants transformed with pMOG 410, 20 till 40 mg/litre cyanamide)?
**A.** some callus development was observed

**Q.** What about the “Regeneration of root explants” value ([2]; explants transformed with the cah gene (PMOG 1156), all cyanamide concentrations, even 80 mg/litre) of the same molecule?
**A.** able to regenerate at all cyanamide concentrations

**Q.** What about the “% Shoots rooting” value [2, 12] of the same molecule?
**A.** 0%

**Q.** And the “Nr. of plants (shoots developed into plants and able to root)” value (“Nr. of plants” for short) [2, 12]?
**A.** 0

**Q.** What about the “% Shoots rooting” value [2, 13] of the same molecule?
**A.** 6.3%

**Q.** And the “Nr. of plants” value [2, 13]?
**A.** 4

**Q.** What about the “% Shoots rooting” value [2, 14] of the same molecule?
**A.** 8.2%

**Q.** What about the “Nr. of plants” value [2, 14] of the same molecule?
**A.** 5

**Q.** What about the “% Shoots rooting” value [2, 15] of the same molecule?
**A.** 8.2%

**Q.** What about the “Nr. of plants” value [2, 15] of the same molecule?
**A.** 5

**Q.** What about the “% Shoots rooting” value [2, 16] of the same molecule?
**A.** 13.8%

**Q.** And the “Nr. of plants” value [2, 16]?
**A.** 9

**Q.** And the “% Shoots rooting” value [2, 17]?
**A.** 1.7%

**Q.** What about the “Nr. of plants” value [2, 17] of the same molecule?
**A.** 1

**Q.** And the “% Shoots rooting” value [2, 18]?
**A.** 3.2%

**Q.** And the “Nr. of plants” value [2, 18]?
**A.** 2

**Q.** What about the “% Shoots rooting” value [2, 19] of the same molecule?
**A.** 4.5%

**Q.** What about the “Nr. of plants” value [2, 19] of the same molecule?
**A.** 3

**Q.** And the “% Shoots rooting” value [2, 20]?
**A.** 8.1%

**Q.** What about the “Nr. of plants” value [2, 20] of the same molecule?
**A.** 5

**Q.** And the “% Shoots rooting” value [2, 21]?
**A.** 15.6%

**Q.** And the “Nr. of plants” value [2, 21]?
**A.** 10

**Q.** What about the “% Shoots rooting” value [2, 22] of the same molecule?
**A.** 4.8%

**Q.** What about the “Nr. of plants” value [2, 22] of the same molecule?
**A.** 3

**Q.** What about the “% Shoots rooting” value [2, 23] of the same molecule?
**A.** 14.5%

**Q.** What about the “Nr. of plants” value [2, 23] of the same molecule?
**A.** 9

**Q.** And the “Nr. of plants” value ([2]; Experiment 98-13, selection cyanamide 40 mg/litre, rooting medium same concentration as selection medium)?
**A.** 1

**Q.** What about the “% Shoots rooting” value [2, 24] of the same molecule?
**A.** 0%

**Q.** What about the “Nr. of plants” value [2, 24] of the same molecule?
**A.** 0

**Q.** And the “% Shoots rooting” value [2, 25]?
**A.** 6.O

**Q.** And the “Nr. of plants” value [2, 25]?
**A.** 4

**Q.** What about the “% Shoots rooting” value [2, 26] of the same molecule?
**A.** 11.4%

**Q.** And the “Nr. of plants” value [2, 26]?
**A.** 8

**Q.** And the “Percentage of GUS expressing plants (% of plants staining blue)” value (“Percentage … (% of plants staining blue)” for short) ([2]; treatment cyanamide 20 mg/litre, C30 in rooting medium)?
**A.** 0^1%

**Q.** And the “Percentage … (% of plants staining blue)” value ([2]; treatment cyanamide 20 mg/litre, rooting medium same conc. as treatment)?
**A.** 0%

**Q.** What about the “Percentage … (% of plants staining blue)” value ([2]; treatment cyanamide 30 mg/litre, C30 in rooting medium) of the same molecule?
**A.** 75-100%

**Q.** What about the “Percentage … (% of plants staining blue)” value ([2]; treatment cyanamide 30 mg/litre, rooting medium same conc. as treatment) of the same molecule?
**A.** 78%

**Q.** And the “Percentage … (% of plants staining blue)” value ([2]; treatment cyanamide 40 mg/litre, C30 in rooting medium)?
**A.** 40-100%

**Q.** What about the “Percentage … (% of plants staining blue)” value ([2]; treatment cyanamide 40 mg/litre, rooting medium same conc. as treatment) of the same molecule?
**A.** 100%

**Q.** And the “Percentage … (% of plants staining blue)” value ([2]; treatment cyanamide 50 mg/litre, C30 in rooting medium)?
**A.** 80%

**Q.** And the “Percentage … (% of plants staining blue)” value ([2]; treatment cyanamide 60 mg/litre, C30 in rooting medium)?
**A.** 80%

**Q.** What about the “Percentage … (% of plants staining blue)” value ([2]; treatment cyanamide 60 mg/litre, rooting medium same conc. as treatment) of the same molecule?
**A.** 100%

**Q.** What about the “Percentage … (% of plants staining blue)” value ([2]; treatment cyanamide 80 mg/litre, C30 in rooting medium) of the same molecule?
**A.** 67-90%

**Q.** What about the “Percentage … (% of plants staining blue)” value ([2]; treatment cyanamide 80 mg/litre, rooting medium same conc. as treatment) of the same molecule?
**A.** 100%
